# Results as given in ChEMBL document CHEMBL5113453, “Design, synthesis, and biological evaluation of a new series of pyrazole derivatives: Discovery of potent and selective JNK3 kinase inhibitors” (Bioorg Med Chem, 2022).
# pIC50: −log10 of the molar value.
# Legend:
# [1] = biological target: T1, Mitogen-activated protein kinase 10 (Homo sapiens, UniProt P53779); assay: Inhibition of JNK3 (unknown origin)
# [2] = biological target: T1, Mitogen-activated protein kinase 10; assay: Inhibition of JNK3 (unknown origin) at 1 uM relative to control
# [3] = system: IGROV-1; assay: Antiproliferative activity against human IGROV-1 cells measured after 48 hrs by SRB assay; format: functional, cell-based; settings: IGROV-1, time 48 hrs
# [4] = system: TK-10; assay: Antiproliferative activity against human TK-10 cells measured after 48 hrs by SRB assay; format: functional, cell-based; settings: TK-10, time 48 hrs
# [5] = system: NCI-H23; assay: Antiproliferative activity against human NCI-H23 cells measured after 48 hrs by SRB assay; format: functional, cell-based; settings: NCI-H23, time 48 hrs
# [6] = system: MCF7; assay: Antiproliferative activity against human MCF7 cells measured after 48 hrs by SRB assay; format: functional, cell-based; settings: MCF7, time 48 hrs
# [7] = system: MOLT-4; assay: Antiproliferative activity against human MOLT-4 cells measured after 48 hrs by SRB assay; format: functional, cell-based; settings: MOLT-4, time 48 hrs
# [8] = system: HL-60(TB); assay: Antiproliferative activity against human HL-60(TB) cells measured after 48 hrs by SRB assay; format: functional, cell-based; settings: HL-60, time 48 hrs
# [9] = system: WI-38; assay: Antiproliferative activity against human WI-38 cells measured by MTT assay; format: functional, cell-based
# [10] = system: UACC-257; assay: Antiproliferative activity against human UACC-257 cells measured after 48 hrs by SRB assay; format: functional, cell-based; settings: UACC-257, time 48 hrs
# [11] = system: HOP-92; assay: Antiproliferative activity against human HOP-92 cells measured after 48 hrs by SRB assay; format: functional, cell-based; settings: HOP-92, time 48 hrs
# [12] = system: NCI/ADR-RES; assay: Antiproliferative activity against human NCI-ADR-RES cells measured after 48 hrs by SRB assay; format: functional, cell-based; settings: time 48 hrs
# [13] = system: ACHN; assay: Antiproliferative activity against human ACHN cells measured after 48 hrs by SRB assay; format: functional, cell-based; settings: time 48 hrs
# [14] = system: HepG2; assay: Antiproliferative activity against human HepG2 cells measured by MTT assay; format: functional, cell-based
# [15] = biological target: Cytochrome P450 3A4 (Homo sapiens, UniProt P08684); assay: Inhibition of CYP3A4 (unknown origin) using BOMCC as a substrate; format: ADME
# [16] = biological target: T1, Mitogen-activated protein kinase 10; assay: Inhibition of JNK3 in human HEK293 cells transfected with JNK3-NanoLuc fusion vector measured after 1 hr by NanoBRET assay; format: cell-based
# [17] = biological target: T2, Platelet-derived growth factor receptor alpha (Homo sapiens, UniProt P16234); assay: Inhibition of PDGFRalpha (unknown origin) at 1 uM relative to control
# [18] = biological target: Cytochrome P450 2D6 (Homo sapiens, UniProt P10635); assay: Inhibition of CYP2D6 (unknown origin) using EOMCC as a substrate; format: ADME
# [19] = biological target: T2, Platelet-derived growth factor receptor alpha; assay: Inhibition of PDGFRalpha (unknown origin)
# [20] = system: Serine/threonine-protein kinase B-raf (Homo sapiens), P15056 [V600E]; assay: Inhibition of B-RAF V600E mutant (unknown origin) at 1 uM relative to control
# [21] = biological target: Voltage-gated inwardly rectifying potassium channel KCNH2 (Homo sapiens, UniProt Q12809); assay: Inhibition of hERG measured by fluorescence polarization assay
# [22] = organism: Homo sapiens; assay: RatioIC50 for inhibition of […] (unknown origin)
# T1 sequence (P53779 whole entry): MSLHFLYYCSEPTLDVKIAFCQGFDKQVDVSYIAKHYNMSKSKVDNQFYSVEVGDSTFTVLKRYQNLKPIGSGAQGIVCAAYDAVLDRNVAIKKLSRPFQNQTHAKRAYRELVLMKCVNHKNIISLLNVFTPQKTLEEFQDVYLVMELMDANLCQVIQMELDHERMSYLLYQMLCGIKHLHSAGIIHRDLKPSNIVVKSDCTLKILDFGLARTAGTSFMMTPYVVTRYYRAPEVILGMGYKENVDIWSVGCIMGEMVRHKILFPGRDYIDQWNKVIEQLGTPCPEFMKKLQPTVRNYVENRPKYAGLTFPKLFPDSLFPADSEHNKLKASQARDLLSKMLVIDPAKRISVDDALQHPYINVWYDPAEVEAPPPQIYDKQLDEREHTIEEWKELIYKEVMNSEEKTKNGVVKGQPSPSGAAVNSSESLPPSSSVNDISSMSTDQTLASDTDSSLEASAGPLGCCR
# T2 sequence (P16234 whole entry): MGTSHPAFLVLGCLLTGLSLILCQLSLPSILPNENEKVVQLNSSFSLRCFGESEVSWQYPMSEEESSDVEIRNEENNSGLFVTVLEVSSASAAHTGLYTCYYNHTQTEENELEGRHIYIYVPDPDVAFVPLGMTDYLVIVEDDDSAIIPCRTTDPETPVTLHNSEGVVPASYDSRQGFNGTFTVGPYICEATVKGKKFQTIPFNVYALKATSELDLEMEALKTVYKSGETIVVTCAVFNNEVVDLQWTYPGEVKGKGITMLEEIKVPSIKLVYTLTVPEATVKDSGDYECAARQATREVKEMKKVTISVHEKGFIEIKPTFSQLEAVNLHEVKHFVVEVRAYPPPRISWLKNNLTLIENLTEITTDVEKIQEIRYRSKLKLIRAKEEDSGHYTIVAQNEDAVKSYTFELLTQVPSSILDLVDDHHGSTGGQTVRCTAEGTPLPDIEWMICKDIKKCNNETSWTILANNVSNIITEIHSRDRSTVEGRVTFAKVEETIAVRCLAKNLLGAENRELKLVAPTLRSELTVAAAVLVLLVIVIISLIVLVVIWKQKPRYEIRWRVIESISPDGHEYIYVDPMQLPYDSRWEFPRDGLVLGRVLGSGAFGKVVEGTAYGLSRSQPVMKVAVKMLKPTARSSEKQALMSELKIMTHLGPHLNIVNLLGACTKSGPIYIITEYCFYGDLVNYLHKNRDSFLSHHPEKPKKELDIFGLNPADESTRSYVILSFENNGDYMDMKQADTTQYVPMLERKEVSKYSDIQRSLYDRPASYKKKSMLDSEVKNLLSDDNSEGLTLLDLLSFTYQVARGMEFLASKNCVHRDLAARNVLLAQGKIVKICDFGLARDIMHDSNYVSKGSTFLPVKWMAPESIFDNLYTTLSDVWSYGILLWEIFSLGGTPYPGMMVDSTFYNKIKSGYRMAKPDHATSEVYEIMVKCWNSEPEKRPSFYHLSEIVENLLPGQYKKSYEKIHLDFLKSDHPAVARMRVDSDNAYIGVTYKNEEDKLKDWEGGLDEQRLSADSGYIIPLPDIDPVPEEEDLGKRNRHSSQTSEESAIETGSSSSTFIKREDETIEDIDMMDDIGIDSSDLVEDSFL
# Serine/threonine-protein kinase B-raf (Homo sapiens), P15056 [V600E], sequence (P15056 whole entry V600E): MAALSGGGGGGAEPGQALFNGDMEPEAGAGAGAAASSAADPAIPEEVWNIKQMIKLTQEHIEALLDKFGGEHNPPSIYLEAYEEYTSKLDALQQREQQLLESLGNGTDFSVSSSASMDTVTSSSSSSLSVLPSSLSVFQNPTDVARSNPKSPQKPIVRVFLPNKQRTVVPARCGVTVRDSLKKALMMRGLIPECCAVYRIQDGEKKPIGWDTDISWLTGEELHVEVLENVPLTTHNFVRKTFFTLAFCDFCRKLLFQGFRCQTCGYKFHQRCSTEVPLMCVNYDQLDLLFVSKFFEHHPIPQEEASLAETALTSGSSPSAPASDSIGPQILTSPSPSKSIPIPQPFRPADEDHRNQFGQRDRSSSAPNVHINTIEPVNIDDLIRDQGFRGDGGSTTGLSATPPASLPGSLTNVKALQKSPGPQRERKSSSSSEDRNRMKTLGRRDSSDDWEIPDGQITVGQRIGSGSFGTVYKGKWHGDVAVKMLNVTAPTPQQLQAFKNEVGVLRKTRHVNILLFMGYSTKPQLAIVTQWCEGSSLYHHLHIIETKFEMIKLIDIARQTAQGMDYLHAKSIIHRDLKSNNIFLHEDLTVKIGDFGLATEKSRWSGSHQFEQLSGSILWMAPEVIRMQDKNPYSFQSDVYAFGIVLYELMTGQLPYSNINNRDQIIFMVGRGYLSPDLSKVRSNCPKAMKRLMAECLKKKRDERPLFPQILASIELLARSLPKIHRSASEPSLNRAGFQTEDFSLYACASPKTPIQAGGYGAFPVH
# Cytochrome P450 3A4, sequence (P08684 whole entry, the tested form may be a part): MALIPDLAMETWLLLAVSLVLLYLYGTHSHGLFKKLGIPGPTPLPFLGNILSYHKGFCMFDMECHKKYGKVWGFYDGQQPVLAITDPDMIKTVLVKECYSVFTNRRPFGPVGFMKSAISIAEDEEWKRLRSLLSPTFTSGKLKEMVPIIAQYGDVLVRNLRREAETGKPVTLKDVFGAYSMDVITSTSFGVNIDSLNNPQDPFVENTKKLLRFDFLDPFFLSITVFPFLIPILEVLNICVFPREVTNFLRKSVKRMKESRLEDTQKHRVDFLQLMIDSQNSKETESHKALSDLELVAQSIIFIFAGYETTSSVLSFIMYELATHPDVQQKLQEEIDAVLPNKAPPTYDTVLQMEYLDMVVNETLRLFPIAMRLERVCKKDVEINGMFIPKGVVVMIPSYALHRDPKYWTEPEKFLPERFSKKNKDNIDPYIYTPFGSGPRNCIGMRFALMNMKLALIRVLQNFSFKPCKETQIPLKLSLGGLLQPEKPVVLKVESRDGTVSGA
# Voltage-gated inwardly rectifying potassium channel KCNH2, sequence (Q12809 whole entry): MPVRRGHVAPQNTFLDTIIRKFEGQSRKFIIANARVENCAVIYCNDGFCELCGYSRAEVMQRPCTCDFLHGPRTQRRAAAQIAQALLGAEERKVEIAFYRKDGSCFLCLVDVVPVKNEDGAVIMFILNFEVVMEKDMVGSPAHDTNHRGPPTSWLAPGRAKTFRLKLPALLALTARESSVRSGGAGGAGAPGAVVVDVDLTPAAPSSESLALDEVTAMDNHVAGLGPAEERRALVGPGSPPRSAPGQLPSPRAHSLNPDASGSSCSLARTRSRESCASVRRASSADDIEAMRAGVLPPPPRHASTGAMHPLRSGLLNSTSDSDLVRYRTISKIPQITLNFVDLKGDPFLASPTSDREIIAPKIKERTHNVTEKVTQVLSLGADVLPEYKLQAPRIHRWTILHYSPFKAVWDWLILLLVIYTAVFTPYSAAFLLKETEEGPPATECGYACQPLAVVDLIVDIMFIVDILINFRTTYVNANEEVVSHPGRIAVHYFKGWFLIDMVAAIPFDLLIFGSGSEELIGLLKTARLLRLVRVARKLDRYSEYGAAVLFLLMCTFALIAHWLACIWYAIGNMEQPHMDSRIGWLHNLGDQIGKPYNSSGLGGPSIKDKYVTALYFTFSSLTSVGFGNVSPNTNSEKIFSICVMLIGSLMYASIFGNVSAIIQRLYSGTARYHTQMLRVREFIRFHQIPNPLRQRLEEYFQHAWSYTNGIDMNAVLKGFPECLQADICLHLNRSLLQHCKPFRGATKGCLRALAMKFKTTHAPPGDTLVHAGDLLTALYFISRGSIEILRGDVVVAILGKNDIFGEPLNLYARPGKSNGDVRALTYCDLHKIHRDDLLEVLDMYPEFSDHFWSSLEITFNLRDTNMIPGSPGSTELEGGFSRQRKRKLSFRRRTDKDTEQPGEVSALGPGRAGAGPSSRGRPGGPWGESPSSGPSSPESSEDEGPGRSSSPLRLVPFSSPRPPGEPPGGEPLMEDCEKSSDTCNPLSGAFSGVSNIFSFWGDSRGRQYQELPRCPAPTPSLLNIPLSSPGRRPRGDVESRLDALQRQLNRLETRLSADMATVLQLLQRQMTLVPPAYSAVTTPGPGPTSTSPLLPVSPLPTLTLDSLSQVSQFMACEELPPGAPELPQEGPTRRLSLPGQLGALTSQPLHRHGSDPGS
# Cytochrome P450 2D6, sequence (P10635 whole entry): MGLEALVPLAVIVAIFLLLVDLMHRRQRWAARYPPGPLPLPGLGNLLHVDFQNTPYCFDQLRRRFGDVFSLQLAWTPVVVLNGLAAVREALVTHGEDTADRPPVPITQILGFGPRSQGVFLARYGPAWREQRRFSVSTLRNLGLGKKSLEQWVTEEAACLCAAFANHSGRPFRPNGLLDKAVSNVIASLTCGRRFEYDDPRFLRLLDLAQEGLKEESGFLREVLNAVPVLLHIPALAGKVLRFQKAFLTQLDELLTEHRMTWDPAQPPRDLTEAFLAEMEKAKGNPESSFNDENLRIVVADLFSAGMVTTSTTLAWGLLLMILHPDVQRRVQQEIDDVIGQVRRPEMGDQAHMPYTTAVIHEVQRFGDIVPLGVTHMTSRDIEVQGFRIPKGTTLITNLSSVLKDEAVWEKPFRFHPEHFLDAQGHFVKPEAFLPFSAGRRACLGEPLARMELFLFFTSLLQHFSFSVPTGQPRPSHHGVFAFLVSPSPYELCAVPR
Structure (SMILES),pIC50 [1],inhibition [2] [%],further results
COc1cccc(-c2nn(-c3ccccc3)cc2-c2ccnc(N3CCN(C(=O)Nc4ccc(F)cc4)CC3)c2)c1,< 6.00,0,
O=C(NCCNc1cc(-c2cn(-c3ccccc3)nc2-c2cccc(O)c2)ccn1)Nc1ccc(F)cc1,6.72,83,
O=C(Nc1cccc(C(F)(F)F)c1)N1CCN(c2cc(-c3cn(-c4ccccc4)nc3-c3cccc(O)c3)ccn2)CC1,< 6.00,17,
O=C(Nc1ccc(Cl)c(Cl)c1)N1CCN(c2cc(-c3cn(-c4ccccc4)nc3-c3cccc(O)c3)ccn2)CC1,< 6.00,3,
O=C(NCCNc1cc(-c2cn(-c3ccccc3)nc2-c2cccc(O)c2)ccn1)Nc1cc(C(F)(F)F)cc(C(F)(F)F)c1,< 6.00,19,
COc1cccc(-c2nn(-c3ccccc3)cc2-c2ccnc(N3CCN(C(=O)Nc4ccccc4)CC3)c2)c1,< 6.00,8,
COc1cccc(-c2nn(-c3ccccc3)cc2-c2ccnc(N3CCN(C(=O)Nc4cc(C(F)(F)F)cc(C(F)(F)F)c4)CC3)c2)c1,< 6.00,9,
CNC(=O)c1cc(Oc2ccc(NC(=O)Nc3ccc(Cl)c(C(F)(F)F)c3)cc2)ccn1 [SORAFENIB],,,TGI [3]: 10 µM; TGI [4]: 10 µM; TGI [5]: 5.01 µM; TGI [6]: 7.94 µM; TGI [7]: 100 µM; TGI [8]: 100 µM; pIC50 [9]: 4.83; TGI [10]: 5.01 µM; TGI [11]: 5.01 µM; TGI [12]: 7.94 µM; TGI [13]: 10 µM
O=C(NCCCNc1cc(-c2cn(-c3ccccc3)nc2-c2cccc(O)c2)ccn1)Nc1ccc(Cl)c(Cl)c1,< 6.00,13,
O=C(Nc1ccccc1)N1CCN(c2cc(-c3cn(-c4ccccc4)nc3-c3cccc(O)c3)ccn2)CC1,< 6.00,6,
O=C(NCCNc1cc(-c2cn(-c3ccccc3)nc2-c2cccc(O)c2)ccn1)Nc1ccc(Cl)c(Cl)c1,6.28,69,pIC50 [14]: 5.55; pIC50 [9]: 4.76
O=C(Nc1ccc(F)cc1)N1CCN(c2cc(-c3cn(-c4ccccc4)nc3-c3cccc(O)c3)ccn2)CC1,< 6.00,8,
COc1cccc(-c2nn(-c3ccccc3)cc2-c2ccnc(N3CCN(C(=O)Nc4ccc(Cl)c(Cl)c4)CC3)c2)c1,< 6.00,4,
COc1cccc(-c2nn(-c3ccccc3)cc2-c2ccnc(N3CCN(C(=O)Nc4ccc(Cl)c(C(F)(F)F)c4)CC3)c2)c1,< 6.00,7,
O=C(Nc1cc(C(F)(F)F)cc(C(F)(F)F)c1)N1CCN(c2cc(-c3cn(-c4ccccc4)nc3-c3cccc(O)c3)ccn2)CC1,< 6.00,1,
O=C(NCCNc1cc(-c2cn(-c3ccccc3)nc2-c2cccc(O)c2)ccn1)Nc1cccc(C(F)(F)F)c1,7.00,84,pIC50 [15]: 4.69; pIC50 [14]: 5.81; pIC50 [16]: 5.41; inhibition [17]: 50%; pIC50 [18]: 5.20; pIC50 [19]: 6.00; inhibition [20]: 9%; pIC50 [9]: 4.73; pIC50 [21]: < 4.30; Ratio IC50 [22]: 10.1
O=C(NCCNc1cc(-c2cn(-c3ccccc3)nc2-c2cccc(O)c2)ccn1)Nc1ccc(Cl)c(C(F)(F)F)c1,< 6.00,38,
O=C(NCCCNc1cc(-c2cn(-c3ccccc3)nc2-c2cccc(O)c2)ccn1)Nc1ccc(Cl)c(C(F)(F)F)c1,6.21,63,
O=C(NCCCNc1cc(-c2cn(-c3ccccc3)nc2-c2cccc(O)c2)ccn1)Nc1cc(C(F)(F)F)cc(C(F)(F)F)c1,< 6.00,0,
COc1cccc(-c2nn(-c3ccccc3)cc2-c2ccnc(N3CCN(C(=O)Nc4cccc(C(F)(F)F)c4)CC3)c2)c1,< 6.00,10,
